From ChEMBL document CHEMBL3098031, “From NMDA receptor antagonists to discovery of selective σ₂ receptor ligands” (Bioorg Med Chem, 2014) come the findings set out here.

The species named for one assay is Cavia porcellus. As to the kind of experiment: Selectivity ratio of Ki for guinea pig brain sigma1 receptor to Ki for guinea pig brain sigma2 receptor.
Assay [1] in a line: Displacement of [3H]DTG from guinea pig brain sigma2 receptor after 120 mins by scintillation counting analysis in presence of SKF10,047. Set-up: species or system Cavia porcellus.
In assay [2] the target is Sigma non-opioid intracellular receptor 1 (Cavia porcellus, UniProt Q60492). In words: Displacement of [3H]-(+)-pentazocine from guinea pig brain sigma1 receptor after 150 mins by scintillation counting analysis.
Chain of Sigma non-opioid intracellular receptor 1 (Q60492 whole entry): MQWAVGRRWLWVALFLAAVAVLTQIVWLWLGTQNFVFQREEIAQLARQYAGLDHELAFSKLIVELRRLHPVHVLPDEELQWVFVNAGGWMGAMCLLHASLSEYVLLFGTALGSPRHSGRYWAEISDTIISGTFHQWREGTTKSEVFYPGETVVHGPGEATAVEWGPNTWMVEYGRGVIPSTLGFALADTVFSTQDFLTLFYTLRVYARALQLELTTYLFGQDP
For assay [3], the target named is Glutamate receptor ionotropic, NMDA 2B (Rattus norvegicus) (UniProt Q00960). In words: Displacement of [3H]ifenprodil from Wistar rat cerebral cortex glutamate NMDA receptor GluN2B subunit at 10 uM after 120 mins by scintillation counting analysis. It counts as tissue-based.
Chain of Glutamate receptor ionotropic, NMDA 2B (Rattus norvegicus) (Q00960 27-1482 limits assumed): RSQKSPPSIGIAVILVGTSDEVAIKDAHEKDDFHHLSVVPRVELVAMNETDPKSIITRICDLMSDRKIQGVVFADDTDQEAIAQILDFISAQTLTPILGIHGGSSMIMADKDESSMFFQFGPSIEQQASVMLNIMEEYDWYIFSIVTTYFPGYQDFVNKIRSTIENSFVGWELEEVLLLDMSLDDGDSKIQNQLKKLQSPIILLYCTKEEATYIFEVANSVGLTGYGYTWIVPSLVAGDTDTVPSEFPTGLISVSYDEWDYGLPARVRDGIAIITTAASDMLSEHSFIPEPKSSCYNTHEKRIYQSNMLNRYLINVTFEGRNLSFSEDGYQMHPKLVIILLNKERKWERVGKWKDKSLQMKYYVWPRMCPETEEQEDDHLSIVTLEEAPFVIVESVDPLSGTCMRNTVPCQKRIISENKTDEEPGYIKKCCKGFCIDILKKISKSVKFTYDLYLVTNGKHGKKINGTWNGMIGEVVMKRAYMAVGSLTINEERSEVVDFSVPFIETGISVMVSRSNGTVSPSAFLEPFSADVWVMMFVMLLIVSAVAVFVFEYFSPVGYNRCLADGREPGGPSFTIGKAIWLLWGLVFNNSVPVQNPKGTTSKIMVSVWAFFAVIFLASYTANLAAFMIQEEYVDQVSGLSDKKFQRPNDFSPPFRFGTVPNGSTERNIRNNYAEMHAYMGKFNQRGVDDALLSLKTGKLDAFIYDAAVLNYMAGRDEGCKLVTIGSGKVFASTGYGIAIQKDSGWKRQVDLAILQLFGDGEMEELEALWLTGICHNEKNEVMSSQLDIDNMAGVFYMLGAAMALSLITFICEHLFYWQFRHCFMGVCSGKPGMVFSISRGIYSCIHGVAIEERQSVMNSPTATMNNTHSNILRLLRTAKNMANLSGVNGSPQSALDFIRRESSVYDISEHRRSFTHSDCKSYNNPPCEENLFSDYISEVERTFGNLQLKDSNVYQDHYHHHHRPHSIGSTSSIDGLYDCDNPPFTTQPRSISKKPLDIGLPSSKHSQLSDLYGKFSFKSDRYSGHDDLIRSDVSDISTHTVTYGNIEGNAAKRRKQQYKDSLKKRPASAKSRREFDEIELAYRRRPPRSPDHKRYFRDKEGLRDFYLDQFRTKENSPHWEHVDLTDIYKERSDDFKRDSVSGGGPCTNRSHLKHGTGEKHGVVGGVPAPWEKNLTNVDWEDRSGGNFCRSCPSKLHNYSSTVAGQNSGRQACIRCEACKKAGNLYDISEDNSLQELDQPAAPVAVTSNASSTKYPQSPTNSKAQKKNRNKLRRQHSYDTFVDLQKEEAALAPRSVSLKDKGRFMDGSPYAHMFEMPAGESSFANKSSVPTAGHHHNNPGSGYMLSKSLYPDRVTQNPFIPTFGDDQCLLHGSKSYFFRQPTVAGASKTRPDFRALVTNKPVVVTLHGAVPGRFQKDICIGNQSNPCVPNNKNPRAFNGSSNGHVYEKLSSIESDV
The target in assay [4] is Glutamate receptor ionotropic, NMDA 2B (Rattus norvegicus, UniProt Q00960). As to the kind of experiment: Displacement of [3H]ifenprodil from Wistar rat cerebral cortex glutamate NMDA receptor GluN2B subunit after 120 mins by scintillation counting analysis. It counts as tissue-based.
Chain of Glutamate receptor ionotropic, NMDA 2B (Q00960 whole entry): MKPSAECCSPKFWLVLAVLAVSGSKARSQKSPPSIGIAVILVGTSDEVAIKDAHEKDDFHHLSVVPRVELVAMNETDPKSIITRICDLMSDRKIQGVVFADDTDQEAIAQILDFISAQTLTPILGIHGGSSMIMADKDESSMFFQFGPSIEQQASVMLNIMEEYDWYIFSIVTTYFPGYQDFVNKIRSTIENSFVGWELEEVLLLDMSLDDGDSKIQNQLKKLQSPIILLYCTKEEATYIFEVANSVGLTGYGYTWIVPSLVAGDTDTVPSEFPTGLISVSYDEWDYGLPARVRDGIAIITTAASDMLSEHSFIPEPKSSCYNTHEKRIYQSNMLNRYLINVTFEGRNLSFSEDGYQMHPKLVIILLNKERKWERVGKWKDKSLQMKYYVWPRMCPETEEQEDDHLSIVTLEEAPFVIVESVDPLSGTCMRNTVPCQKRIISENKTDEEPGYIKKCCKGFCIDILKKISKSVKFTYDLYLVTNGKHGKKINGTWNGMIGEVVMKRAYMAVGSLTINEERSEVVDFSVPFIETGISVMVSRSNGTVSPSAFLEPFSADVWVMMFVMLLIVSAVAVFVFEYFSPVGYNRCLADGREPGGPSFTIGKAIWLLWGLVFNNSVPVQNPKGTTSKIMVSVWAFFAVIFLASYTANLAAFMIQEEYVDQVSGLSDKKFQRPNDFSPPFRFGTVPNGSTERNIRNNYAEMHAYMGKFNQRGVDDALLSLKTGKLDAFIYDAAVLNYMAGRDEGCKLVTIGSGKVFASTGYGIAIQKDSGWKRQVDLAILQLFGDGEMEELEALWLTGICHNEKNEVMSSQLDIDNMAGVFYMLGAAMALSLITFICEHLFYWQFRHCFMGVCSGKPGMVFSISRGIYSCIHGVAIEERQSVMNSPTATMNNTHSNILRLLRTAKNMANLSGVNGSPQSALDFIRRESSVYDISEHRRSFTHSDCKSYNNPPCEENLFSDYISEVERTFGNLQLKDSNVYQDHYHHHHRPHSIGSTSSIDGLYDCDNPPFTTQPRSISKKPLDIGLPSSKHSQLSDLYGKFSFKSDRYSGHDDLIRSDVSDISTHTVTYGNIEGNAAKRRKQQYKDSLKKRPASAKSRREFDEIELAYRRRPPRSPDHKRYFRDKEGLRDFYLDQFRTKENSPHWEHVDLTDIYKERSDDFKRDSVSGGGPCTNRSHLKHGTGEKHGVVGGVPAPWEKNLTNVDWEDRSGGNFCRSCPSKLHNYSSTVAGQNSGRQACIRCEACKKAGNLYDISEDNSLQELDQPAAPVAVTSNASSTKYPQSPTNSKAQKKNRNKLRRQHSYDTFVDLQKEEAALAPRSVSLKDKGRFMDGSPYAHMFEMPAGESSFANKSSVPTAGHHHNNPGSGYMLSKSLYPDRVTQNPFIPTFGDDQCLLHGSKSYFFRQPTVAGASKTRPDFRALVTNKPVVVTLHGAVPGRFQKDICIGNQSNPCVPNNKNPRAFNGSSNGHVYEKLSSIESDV

SMILES strings stand for the structures. Active and inactive are the calls of the source. The calls are words filed in the database; no cut-off is given here.

On to `O=C(CN1CCC(O)(c2ccc(Cl)cc2)CC1)c1c[nH]c2ccc(O)cc12`, for which the Ratio Ki in the assay listed under Cavia porcellus came to 11.9. The Ki in assay [1] came out at 47 nM; in assay [2] it was 557 nM. Moreover, the inhibition in assay [3] is 26%.

Turning to `COc1ccc2[nH]cc(C(=O)CN3CCC(O)(c4ccc(Br)cc4)CC3)c2c1`, the Ratio Ki in the assay listed under Cavia porcellus was found to be 6. Further, the values for the inhibition constant (Ki) in assay [1] and in assay [2] were 10 nM and 60 nM, respectively. In assay [3], this compound displayed an inhibition of 5%.

In assay [3], `N#CC1(c2ccccc2)CCN(CC(=O)c2c[nH]c3ccc(O)cc23)CC1` displayed an inhibition of 16%.

As for `COc1ccc2[nH]cc(C(=O)CN3CCC(O)(c4ccc(Cl)cc4)CC3)c2c1`, the Ratio Ki in the assay filed under Cavia porcellus came to 10.5. The inhibition constant (Ki) amounted to 7.5 nM in assay [1] and 78.5 nM in assay [2]. This compound showed an inhibition in assay [3] of 15%.

Compound `CC(=O)C1(c2ccccc2)CCN(CC(=O)c2c[nH]c3ccc(O)cc23)CC1` showed an inhibition in assay [3] of 6%.

Take `COc1ccc2[nH]cc(C(=O)CN3CCC(Cc4ccccc4)CC3)c2c1`: the Ratio Ki in the assay listed under Cavia porcellus was greater than 500. The inhibition constant Ki in assay [1] is 10 nM; in assay [2] it was greater than 5000 nM; in assay [4] it was 1670 nM. Further, the inhibition in assay [3] turned out to be 86%.

For `COc1ccc2[nH]cc(C(=O)CN3CCC(c4ccccc4)CC3)c2c1`, the Ratio Ki in the assay listed under Cavia porcellus stood at 95.5. The inhibition constant (Ki) in assay [1] was found to be 20 nM; in assay [2] it was 1910 nM. In assay [3], the inhibition was 8%.

As for `O=C(CN1CCC(c2ccccc2)CC1)c1c[nH]c2ccc(O)cc12`, in the assay listed under Cavia porcellus, the Ratio Ki was 12. Besides, the Ki in assay [1] was 224 nM; in assay [2], 2680 nM. This compound also had an inhibition in assay [3] of 51%.

Turning to `COc1ccc2[nH]cc(C(=O)CN3CCC(C(C)=O)(c4ccccc4)CC3)c2c1`, the inhibition result in assay [3] was “inactive”.

With `COc1ccc2[nH]cc(C(=O)CN3CCC(O)(c4ccccc4)CC3)c2c1`, the Ratio Ki in the assay filed under Cavia porcellus was 5. The Ki in assay [1] is 21 nM; in assay [2], 103 nM. Besides, the inhibition in assay [3] was determined as 11%.

`COc1ccc2[nH]cc(C(=O)CN3CCC(C#N)(c4ccccc4)CC3)c2c1` gave an inhibition in assay [3] of 11%.

For `O=C(CN1CCC(Cc2ccccc2)CC1)c1c[nH]c2ccc(O)cc12`, in the assay filed under Cavia porcellus, the Ratio Ki came out at 61.9. In addition, the inhibition constant Ki in assay [1] is 76.5 nM; in assay [2], 4730 nM. This compound yielded an inhibition in assay [3] of 92%.

Turning to `O=C(CN1CCC(O)(c2ccc(Br)cc2)CC1)c1c[nH]c2ccc(O)cc12`, the Ratio Ki in the assay listed under Cavia porcellus is 3.2. The inhibitory constant (Ki) turned out to be 57 nM in assay [1] and 185 nM in assay [2]. In assay [3], this compound came in with an inhibition of 40%.

On to `O=C(CN1CCC(O)(c2ccccc2)CC1)c1c[nH]c2ccc(O)cc12`, for which the Ratio Ki in the assay filed under Cavia porcellus came to 4.7. In addition, the inhibition constant (Ki) in assay [1] was 658 nM; in assay [2], 3080 nM. The compound further gave an inhibition in assay [3] of 32%.
